Data as given in patent publication US20110112132A1, “MEANS FOR THE TREATMENT OF ACUTE AND CHRONIC DISORDERS OF CEREBRAL CIRCULATION, INCLUDING INSULT, BASED ON HYDROGENATED PYRIDO (4,3-B) INDOLES (VARIANTS), PHARMACOLOGICAL MEANS BASED THEREON AND METHOD FOR THE USE THEREOF” (Medivation Neurology, Inc., priority 2006, published 2011).
Counter-ions that a name gives are not always drawn. Marks after values point to notes of the source that are not given here.

Assays:
[1] = system: NMDA receptors; conditions: rat brain neurons; cited from earlier work
[2] = system: AMPA receptors; conditions: rat brain neurons; cited from earlier work
[3] = system: rats with hemorrhagic insult; experiment: Intracerebral post-traumatic hematoma (hemorrhagic insult) model: death of animals; assay type: in vivo, rat; conditions: 0.1 mg/kg i.p.; entire period of observation
Method: (§1) The study was performed in accordance with the “Methodological instructions for the experimental study of preparations for the treatment of cerebral circulation and migraine,” in “Handbook on the experimental (preclinical) study of new pharmacological substances,” Meditsina, Moscow, 2005, pp. 332-338, as modified by A. N. Makarenko et al. (“Method for modeling local hemorrhage in various brain structures in experimental animals,” Zh. vyssh. nervn. deyat. (2002) 52(6):765-768).
The experiments were performed on cross-bred male white rats weighing 200-250 g, kept in a vivarium with free access to food (standard pelleted feed) and water, and with natural alternation of day and night. […]
The animals were divided into 4 groups: sham-operated, a group of animals with hemorrhagic insult, animals with hemorrhagic insult which received dimebon intraperitoneally at a dose of 0.1 mg/kg, and animals with hemorrhagic insult which received nimodipine intraperitoneally at a dose of 0.1 mg/kg. The effects of the substances were recorded 24 hours, and 3, 7 and 14 days after operation. […]
Rat deaths were recorded over the entire 14 day period of observation. […]

[4] = system: rats with hemorrhagic insult; experiment: Intracerebral post-traumatic hematoma (hemorrhagic insult) model: neurological deficit, McGraw Stroke index; assay type: in vivo, rat
Method: as §1
The experiments were performed on cross-bred male white rats weighing 200-250 g, kept in a vivarium with free access to food (standard pelleted feed) and water, and with natural alternation of day and night. Using a special device (mandrin-knife) and stereotaxis, brain tissue of rats anesthetized with nembutal (40 mg/kg, i/m) was destroyed in the region of the capsule interna, with subsequent (after 2-3 minutes) introduction into the damage site of blood taken from under the rat's tongue (0.02-0.03 ml). Scalping and trepanning of the skull were performed on sham-operated animals.
The animals were divided into 4 groups: sham-operated, a group of animals with hemorrhagic insult, animals with hemorrhagic insult which received dimebon intraperitoneally at a dose of 0.1 mg/kg, and animals with hemorrhagic insult which received nimodipine intraperitoneally at a dose of 0.1 mg/kg. The effects of the substances were recorded 24 hours, and 3, 7 and 14 days after operation.
Dimebon and nimodipine were administered intraperitoneally to animals with insult in an identical dose of 0.1 mg/kg 3-3.5 hours after operation, and then daily for 14 days after operation. An equal volume of physiological saline was administered intraperitoneally to the control groups of animals at identical intervals. Each group consisted of 9-18 animals at the start of the experiment.
The neurological deficit in the animals was determined using the McGraw Stroke index as modified by I. V. Gannushkina (Functional angioarchitectonics of the brain (1977) (Moscow, Meditsina) p. 224). The severity of the condition was determined from the sum of the corresponding scores. The number of rats with mild symptoms up to 2.5 points on the Stroke-index scale (sluggish movements, limb weakness, unilateral hemiptosis, tremor, circular movements) and with severe manifestations of neurological impairment (from 3 to 10 points)—limb paresis, paralysis of lower limbs, lateral position, was noted.

[5] = system: rats with cerebral ischemia induced by ligation of the carotid arteries; experiment: Rat brain ischemia by ligation of the carotid arteries: neurological deficit, McGraw Stroke index; assay type: in vivo; conditions: 0.1 mg/kg i.p.
Method: Rat brain ischemia, produced by irreversible occlusion of the carotid arteries, was performed in accordance with “Methodological instructions for the experimental study of preparations for the treatment of cerebral circulation and migraine,” in “Handbook on the experimental (preclinical) study of new pharmacological substances,” Meditsina, Moscow, 2005, pp. 332-338.
Experiments were performed on cross-bred male white rats weighing 200-250 g, anesthetized with chloral hydrate (350 mg/kg, i/p). Irreversible single-step bilateral ligation of the common carotid arteries was performed on the animals. In the group of sham-operated animals, the ligatures were applied to the vessels but were not tightened.
After completing the operation, the animals were divided randomly into groups: group one rats were given dimebon intraperitoneally at 0.1 mg/kg administered 30 minutes after the ligature was tied, then daily for 14 days after operation; group two rats were given nimodipine intraperitoneally at 0.1 mg/kg administered 30 minutes after the ligature was tied, then daily for 14 days after operation. Group one and group two animals were experiencing an acute cerebral circulation disturbance at the time of drug administration. Control group and sham-operated animals were given equivalent volumes of physiological saline (0.9% sodium chloride) at the same times.
Neurological deficit in animals with cerebral ischemia induced by ligation of the carotid arteries was determined using the McGraw Stroke index as modified by I. V. Gannushkina (Functional angioarchitectonics of the brain (1977) (Moscow, Meditsina) p. 224). The severity of the condition was determined from the sum of the corresponding scores. The number of rats with mild symptoms up to 2.5 points on the Stroke-index scale (sluggish movements, limb weakness, hemiptosis, tremor, circular movements) and with severe manifestations of neurological impairment (from 3 to 10 points)—limb paresis, paralysis of lower limbs, lateral position, was noted.

[6] = 24 hours after operation (hemorrhagic insult), 0.1 mg/kg i.p.
[7] = 14 days after operation (hemorrhagic insult), 0.1 mg/kg i.p. daily

Structure (SMILES)	Number of animals with circular movements [4, 6]	Number of animals with limb weakness [4, 6]	Number of animals with paresis of 1-4 limbs [4, 6]	Number of animals with sluggish, slow movements [4, 6]	Number of animals with circular movements [4, 7]	Number of animals with limb weakness [4, 7]	Number of animals with paresis of 1-4 limbs [4, 7]	Number of animals with sluggish, slow movements [4, 7]	Number of animals with bilateral hemiptosis ([5]; 1 day after ischemic insult)	Number of animals with limb weakness ([5]; 1 day after ischemic insult)	Number of animals with sluggish, slow movements ([5]; 1 day after ischemic insult)	Number of animals with unilateral hemiptosis ([5]; 1 day after ischemic insult)	Number of animals with bilateral hemiptosis ([5]; 3 days after ischemic insult)	Number of animals with limb weakness ([5]; 3 days after ischemic insult)	Number of animals with sluggish, slow movements ([5]; 3 days after ischemic insult)	Number of animals with unilateral hemiptosis ([5]; 3 days after ischemic insult)	Number of animals with bilateral hemiptosis ([5]; 7 days after ischemic insult)	Number of animals with limb weakness ([5]; 7 days after ischemic insult)	Number of animals with sluggish, slow movements ([5]; 7 days after ischemic insult)	Number of animals with unilateral hemiptosis ([5]; 7 days after ischemic insult)	also measured
Cc1ccc2c(c1)c1c(n2CCc2ccc(C)nc2)CCN(C)C1 [dimebon, 2,8-dimethyl-5-[2-(6-methyl-pyridyl-3-)ethyl]2,3,4,5-tetrahydro-1H-pyrido[4,3-b]indole dihydrochloride]	33%	66%	33%	88%	0%	7%	0%	7%	33.3* %	16.7%	33.3* %	16.7%	25.0* %	16.7%	33.3%	0%	9.1* %	9.1%	9.1* %	0%	Effect on NMDA receptors, in words [1]: blocks the NMDA receptors; Effect on transmembrane currents induced by the activation of AMPA receptors, in words [2]: potentiates the transmembrane currents; Effect on death of animals after hemorrhagic insult, in words [3]: almost completely prevented the death of animals; Effect on number of animals with pareses after hemorrhagic insult, in words ([4]; 0.1 mg/kg i.p., first day of observation): almost halving the number of animals with pareses; Effect on neurological deficit in rats with ischemia, in words ([5]; first and particularly seventh day after operation): prevented the development of neurological deficit; Number of animals with bilateral hemiptosis ([5]; 14 days after ischemic insult): 0%; Number of animals with limb weakness ([5]; 14 days after ischemic insult): 0%; Number of animals with sluggish, slow movements ([5]; 14 days after ischemic insult): 0%; Number of animals with unilateral hemiptosis ([5]; 14 days after ischemic insult): 0%; Number of animals with unilateral ptosis ([5]; 14 days after ischemic insult): 0%
COCCOC(=O)C1=C(C)NC(C)=C(C(=O)OC(C)C)C1c1cccc([N+](=O)[O-])c1 (stereo not shown) [nimodipine, reference compound]	25%	50%	25* %	50%	0%	0%	0* %	16.6%	50%	20%	50%	20%	20* %	0%	30%	20%	20* %	10%	0%	0%	Number of animals with bilateral hemiptosis ([5]; 14 days after ischemic insult): 0%; Number of animals with limb weakness ([5]; 14 days after ischemic insult): 0%; Number of animals with sluggish, slow movements ([5]; 14 days after ischemic insult): 0%; Number of animals with unilateral hemiptosis ([5]; 14 days after ischemic insult): 0%; Number of animals with unilateral ptosis ([5]; 14 days after ischemic insult): 0%
